Our source for the IC50 values is ChEMBL document CHEMBL1268854, “A Bisindole Alkaloid with Hedgehog Signal Inhibitory Activity from the Myxomycete Perichaena chrysosperma” (J Nat Prod, 2010).

Some results are limits rather than exact numbers.

A short description of assay [1]: Cytotoxicity against mouse C3H10T1/2 cells after 24 hrs. Format: cell-based. Particulars: C3H 10T1/2, 24 h.
A further assay deals with DU-145. As to the kind of experiment: Cytotoxicity against human DU145 cells after 24 hrs. Format: functional, cell-based. The settings on record: DU-145, 24 h.
The test system of another assay is PANC-1. As to the kind of experiment: Cytotoxicity against human PANC1 cells after 24 hrs. Format: functional, cell-based. The settings on record: PANC-1, 24 h.
A short description of assay [2]: Inhibition of hedgehog signaling pathway in human HaCaT cells assessed as inhibition of GLI1-mediated transcriptional activity. The format is cell-based.

For the compound `COC1NC(=O)c2c1c1c3ccccc3[nH]c1c1[nH]c3cc(O)ccc3c21` (centres undefined), the IC50 in assay [1] was more than 14 µM; with DU-145, 4.2 µM; in the assay with PANC-1, 5 µM; in assay [2] it was 4.6 µM.

As a reminder, the IC50 is the point on the concentration scale where inhibition reaches its midpoint.
